# Laboratory results reported in US20240261271A1, “APPLICATION OF HYDRONIDONE IN PREPARATION OF DRUG FOR TREATING OR PREVENTING CHRONIC HEPATITIS B WITH LIVER FIBROSIS” (priority 2021, published 2024).
# Columns and labels:
# [1] = test system: liver tissue inflammation; experiment: Phase II clinical study: liver tissue inflammation grading; format: in vivo, human; conditions: after 52 weeks of treatment
# Protocol: (§1) This is a randomized, double-blind, placebo-controlled, multicenter, and dose-finding phase II clinical study with foundational treatment. In the clinical trial, three different dose test groups and a placebo control group were set on the basis of the entecavir capsule antiviral treatment, and the planned sample amount of each group was 60 cases, totaling 240 cases. The three dose test groups were 180 mg group, 270 mg group, and 360 mg group, respectively. The proportion of each test group to the control group was 1:1:1:1, and the cases were distributed randomly. […] Negative conversion rate of HBV DNA after treatment between the groups was compared using CMH-λ2 test or Fisher's exact probability method. • 2. Liver tissue elasticity reduction after treatment between the groups was compared using Kruskal-Wallis H test. • 3. […] The recovery rate of the liver function index after treatment between the groups was compared using CMH-λ2 test or Fisher's exact probability method, and the found values of each index between the groups were compared using variance analysis or Kruskal-Wallis H test.
# [2] = test system: ALT (alanine aminotransferase); experiment: Phase II clinical study: ALT index of liver function; format: in vivo, human; conditions: FAS, after 52 weeks of treatment
# Protocol: as §1
smiles,measurement,setting,value
Cc1ccc(=O)n(-c2ccc(O)cc2)c1 [hydronidone],proportion of the subjects with the liver tissue inflammation ameliorated,[1]; 180 mg group,21 (58.33%) n(%)
same,proportion of the subjects with the liver tissue inflammation ameliorated,[1]; 270 mg group,20 (57.14%) n(%)
same,proportion of the subjects with the liver tissue inflammation ameliorated,[1]; 360 mg group,19 (55.88%) n(%)
same,mean (standard deviation) of variation of the ALT index compared with the baseline,[2]; 180 mg group,44.71 (53.50)
same,proportion of the subjects with ALT indexes determined to turn normal from abnormal (baseline),[2]; 180 mg group,15 (78.95%) n(%)
same,mean (standard deviation) of variation of the ALT index compared with the baseline,[2]; 270 mg group,66.47 (78.13)
same,proportion of the subjects with ALT indexes determined to turn normal from abnormal (baseline),[2]; 270 mg group,18 (85.71%) n(%)
same,mean (standard deviation) of variation of the ALT index compared with the baseline,[2]; 360 mg group,43.58 (59.87)
same,proportion of the subjects with ALT indexes determined to turn normal from abnormal (baseline),[2]; 360 mg group,16 (88.89%) n(%)
